{
  "source": "patent US20020137929A1",
  "about": "“1 - (3-heterocyclylphenyl) isothiourea, -isourea, -guanidine and -amidine herbicidal agents” (Intellectual Property Department, BASF Aktiengesellschaft, priority 1998, published 2002)",
  "key": {"[1]": {"tested_on": "TRZAWR (Wheat, Winter, cv Riband)", "assay": "Preemergence herbicidal evaluation", "format": "in vivo, Triticum aestivum", "settings": "rated 4-5 weeks after treatment", "how_it_was_run": "(§1)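 Preemergence soil application of compound, sprayed in aqueous acetone at rates equivalent to about 0.0156 to 0.500 kg per hectare onto freshly sown cups. Plant response was judged by eye on a 0-9 scale four to five weeks later.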"}, "ABUTH (Velvetleaf)": {"tested_on": "ABUTH (Velvetleaf)", "assay": "Postemergence herbicidal evaluation", "format": "in vivo, Abutilon theophrasti", "settings": "postemergence", "how_it_was_run": "(§2)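 Seedlings grown about two weeks were sprayed at 40 psi with compound dispersed in 50/50 acetone/water plus 0.5% TWEEN 20, at about 0.0156 to 0.500 kg/ha. Plants were kept in the greenhouse and scored 4–5 weeks later on a 0–9 visual scale against untreated controls.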"}, "MOOVA (Monochoria)": {"tested_on": "MOOVA (Monochoria)", "assay": "Preemergence weed control under flooded paddy conditions", "format": "in vivo, Monochoria vaginalis", "settings": "rated 3-4 weeks after treatment", "how_it_was_run": "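Greenhouse paddy assay. Acetone/water (50/50 v/v) solutions dosed into flood water, equivalent to about 0.0313 to 0.500 kg/ha active ingredient, over seeds planted 0.5 cm deep in silt loam. Score: 0-9 visual, based on stand, vigor, malformation, size and chlorosis, 3 to 4 weeks after treatment.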"}, "ECHCG (Barnyardgrass)": {"tested_on": "ECHCG (Barnyardgrass)", "assay": "Preemergence herbicidal evaluation", "format": "in vivo, Echinochloa crus-galli", "settings": "rated 4-5 weeks after treatment", "how_it_was_run": "as §1"}, "[2]": {"tested_on": "ECHORC (Watergrass (Calif.))", "assay": "Preemergence weed control under flooded paddy conditions", "format": "in vivo, Echinochloa oryzoides", "settings": "rated 3-4 weeks after treatment", "how_it_was_run": "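Silt loam, seeds in top 0.5 cm; flood held 1.5-3 cm; test cpd as acetone/water 50/50 into flood water, ~0.0313-0.500 kg/ha a.i.; greenhouse 3-4 wk; visual 0-9 score vs control.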"}, "[3]": {"tested_on": "CHEAL (Lambsquarters, Common)", "assay": "Preemergence herbicidal evaluation", "format": "in vivo, Chenopodium album", "settings": "rated 4-5 weeks after treatment", "how_it_was_run": "as §1"}, "ORYSAT (Rice, Tebonnet)": {"tested_on": "ORYSAT (Rice, Tebonnet)", "assay": "Preemergence herbicidal evaluation", "format": "in vivo, Oryza sativa, (L.) Tebonnet", "settings": "rated 4-5 weeks after treatment", "how_it_was_run": "as §1"}, "[4]": {"tested_on": "IPOHE (Morningglory, Ivyleaf)", "assay": "Postemergence herbicidal evaluation", "format": "in vivo, Ipomoea hederacea", "settings": "postemergence", "how_it_was_run": "as §2"}, "SETVI (Foxtail, Green)": {"tested_on": "SETVI (Foxtail, Green)", "assay": "Preemergence herbicidal evaluation", "format": "in vivo, Setaria viridis", "settings": "rated 4-5 weeks after treatment", "how_it_was_run": "as §1"}, "[5]": {"tested_on": "IPOHE (Morningglory, Ivyleaf)", "assay": "Preemergence herbicidal evaluation", "format": "in vivo, Ipomoea hederacea", "settings": "rated 4-5 weeks after treatment", "how_it_was_run": "as §1"}, "[6]": {"tested_on": "TRZAWR (Wheat, Winter, cv Riband)", "assay": "Postemergence herbicidal evaluation", "format": "in vivo, Triticum aestivum", "settings": "postemergence", "how_it_was_run": "as §2"}},
  "data": [
    {"smiles": "Cn1c(C(F)(F)F)cc(=O)n(-c2cc(N=C3SCC(=O)N3CC(=O)OCC3CC3)c(Cl)cc2F)c1=O", "note": "[Compound 124, Cyclopropylmethyl 2-{{2-chloro-5-[3,6-dihydro-3-methyl-2,6-dioxo-4-(trifluoromethyl)-1(2H)-pyrimidinyl]-4-fluorophenyl}imino}-4-oxo-3-thiazolidineacetate]", "values": [
      {"measurement": "Preemergence herbicidal rating TRZAWR", "setting": "[1]; rate 0.0156 kg/ha", "result": 0.0},
      {"measurement": "Preemergence herbicidal rating TRZAWR", "setting": "[1]; rate 0.0313 kg/ha", "result": 0.0},
      {"measurement": "Preemergence herbicidal rating TRZAWR", "setting": "[1]; rate 0.0625 kg/ha", "result": 0.0},
      {"measurement": "Preemergence herbicidal rating TRZAWR", "setting": "[1]; rate 0.1250 kg/ha", "result": 0.0},
      {"measurement": "Preemergence herbicidal rating TRZAWR", "setting": "[1]; rate 0.2500 kg/ha", "result": 0.0},
      {"measurement": "Preemergence herbicidal rating TRZAWR", "setting": "[1]; rate 0.5000 kg/ha", "result": 0.0},
      {"measurement": "herbicidal rating ABUTH", "setting": "ABUTH (Velvetleaf); rate 0.0156 kg/ha", "result": 7.0},
      {"measurement": "herbicidal rating ABUTH", "setting": "ABUTH (Velvetleaf); rate 0.0313 kg/ha", "result": 9.0},
      {"measurement": "herbicidal rating ABUTH", "setting": "ABUTH (Velvetleaf); rate 0.0625 kg/ha", "result": 9.0},
      {"measurement": "herbicidal effect rating, MOOVA", "setting": "MOOVA (Monochoria); 0.0313 kg/ha", "result": 0.0},
      {"measurement": "herbicidal effect rating, MOOVA", "setting": "MOOVA (Monochoria); 0.0625 kg/ha", "result": 0.0},
      {"measurement": "herbicidal effect rating, MOOVA", "setting": "MOOVA (Monochoria); 0.1250 kg/ha", "result": 0.0},
      {"measurement": "herbicidal effect rating, MOOVA", "setting": "MOOVA (Monochoria); 0.2500 kg/ha", "result": 7.0},
      {"measurement": "Preemergence herbicidal rating ECHCG", "setting": "ECHCG (Barnyardgrass); rate 0.0156 kg/ha", "result": 0.0},
      {"measurement": "Preemergence herbicidal rating ECHCG", "setting": "ECHCG (Barnyardgrass); rate 0.0313 kg/ha", "result": 0.0},
      {"measurement": "Preemergence herbicidal rating ECHCG", "setting": "ECHCG (Barnyardgrass); rate 0.0625 kg/ha", "result": 0.0},
      {"measurement": "Preemergence herbicidal rating ECHCG", "setting": "ECHCG (Barnyardgrass); rate 0.1250 kg/ha", "result": 0.0},
      {"measurement": "Preemergence herbicidal rating ECHCG", "setting": "ECHCG (Barnyardgrass); rate 0.2500 kg/ha", "result": 0.0},
      {"measurement": "Preemergence herbicidal rating ECHCG", "setting": "ECHCG (Barnyardgrass); rate 0.5000 kg/ha", "result": 1.0},
      {"measurement": "herbicidal effect rating, ECHORC", "setting": "[2]; 0.0313 kg/ha", "result": 5.0},
      {"measurement": "herbicidal effect rating, ECHORC", "setting": "[2]; 0.0625 kg/ha", "result": 5.0},
      {"measurement": "herbicidal effect rating, ECHORC", "setting": "[2]; 0.1250 kg/ha", "result": 9.0},
      {"measurement": "herbicidal effect rating, ECHORC", "setting": "[2]; 0.2500 kg/ha", "result": 8.0},
      {"measurement": "Preemergence herbicidal rating CHEAL", "setting": "[3]; rate 0.0156 kg/ha", "result": 9.0},
      {"measurement": "Preemergence herbicidal rating CHEAL", "setting": "[3]; rate 0.0313 kg/ha", "result": 9.0},
      {"measurement": "Preemergence herbicidal rating CHEAL", "setting": "[3]; rate 0.0625 kg/ha", "result": 9.0},
      {"measurement": "Preemergence herbicidal rating CHEAL", "setting": "[3]; rate 0.1250 kg/ha", "result": 9.0},
      {"measurement": "Preemergence herbicidal rating CHEAL", "setting": "[3]; rate 0.2500 kg/ha", "result": 9.0},
      {"measurement": "Preemergence herbicidal rating CHEAL", "setting": "[3]; rate 0.5000 kg/ha", "result": 9.0},
      {"measurement": "Preemergence herbicidal rating ORYSAT", "setting": "ORYSAT (Rice, Tebonnet); rate 0.0156 kg/ha", "result": 0.0},
      {"measurement": "Preemergence herbicidal rating ORYSAT", "setting": "ORYSAT (Rice, Tebonnet); rate 0.0313 kg/ha", "result": 0.0},
      {"measurement": "Preemergence herbicidal rating ORYSAT", "setting": "ORYSAT (Rice, Tebonnet); rate 0.0625 kg/ha", "result": 0.0},
      {"measurement": "Preemergence herbicidal rating ORYSAT", "setting": "ORYSAT (Rice, Tebonnet); rate 0.1250 kg/ha", "result": 0.0},
      {"measurement": "Preemergence herbicidal rating ORYSAT", "setting": "ORYSAT (Rice, Tebonnet); rate 0.2500 kg/ha", "result": 0.0},
      {"measurement": "Preemergence herbicidal rating ORYSAT", "setting": "ORYSAT (Rice, Tebonnet); rate 0.5000 kg/ha", "result": 2.0},
      {"measurement": "herbicidal rating IPOHE", "setting": "[4]; rate 0.0156 kg/ha", "result": 9.0},
      {"measurement": "herbicidal rating IPOHE", "setting": "[4]; rate 0.0313 kg/ha", "result": 9.0},
      {"measurement": "herbicidal rating IPOHE", "setting": "[4]; rate 0.0625 kg/ha", "result": 9.0},
      {"measurement": "Preemergence herbicidal rating SETVI", "setting": "SETVI (Foxtail, Green); rate 0.0156 kg/ha", "result": 0.0},
      {"measurement": "Preemergence herbicidal rating SETVI", "setting": "SETVI (Foxtail, Green); rate 0.0313 kg/ha", "result": 0.0},
      {"measurement": "Preemergence herbicidal rating SETVI", "setting": "SETVI (Foxtail, Green); rate 0.0625 kg/ha", "result": 0.0},
      {"measurement": "Preemergence herbicidal rating SETVI", "setting": "SETVI (Foxtail, Green); rate 0.1250 kg/ha", "result": 0.0},
      {"measurement": "Preemergence herbicidal rating SETVI", "setting": "SETVI (Foxtail, Green); rate 0.2500 kg/ha", "result": 4.0},
      {"measurement": "Preemergence herbicidal rating SETVI", "setting": "SETVI (Foxtail, Green); rate 0.5000 kg/ha", "result": 9.0},
      {"measurement": "Preemergence herbicidal rating IPOHE", "setting": "[5]; rate 0.0156 kg/ha", "result": 0.0},
      {"measurement": "Preemergence herbicidal rating IPOHE", "setting": "[5]; rate 0.0313 kg/ha", "result": 0.0},
      {"measurement": "Preemergence herbicidal rating IPOHE", "setting": "[5]; rate 0.0625 kg/ha", "result": 0.0},
      {"measurement": "Preemergence herbicidal rating IPOHE", "setting": "[5]; rate 0.1250 kg/ha", "result": 0.0},
      {"measurement": "Preemergence herbicidal rating IPOHE", "setting": "[5]; rate 0.2500 kg/ha", "result": 1.0},
      {"measurement": "Preemergence herbicidal rating IPOHE", "setting": "[5]; rate 0.5000 kg/ha", "result": 6.0},
      {"measurement": "herbicidal rating TRZAWR", "setting": "[6]; rate 0.0156 kg/ha", "result": 3.7},
      {"measurement": "herbicidal rating TRZAWR", "setting": "[6]; rate 0.0313 kg/ha", "result": 4.3},
      {"measurement": "herbicidal rating TRZAWR", "setting": "[6]; rate 0.0625 kg/ha", "result": 5.0}
    ]}
  ]
}
